Species: Rattus norvegicus
Assay: Open TG-GATES - Regimen: Single
Type: toxicity, organism-based, Sprague-Dawley
Design: regimen Single, gender Male, age 6 weeks
Conditions: in vivo, po, route gavage; for APTT / Bas / Eos / Fbg / Hb / Ht / Lym / MCH / MCHC / MCV / Mono / Neu / PT / Plat / Ret / WBC: tissue Blood; for KIDNEY_L / KIDNEY_R / KIDNEY_TOTAL: tissue Kidney; for LIVER: tissue Liver; for ALP / ALT / AST / BUN / CRE / DBIL / GLC / IP / K / LDH / Na / PL / RALB / TBIL / TC / TG / TP / gamma-GTP / Ca: tissue Plasma
[1] = 0 mg/kg, 3 h, dose level Control
[2] = 0 mg/kg, 6 h, dose level Control
[3] = 0 mg/kg, 9 h, dose level Control
[4] = 0 mg/kg, 24 h, dose level Control

`CN(C)CCCN1c2ccccc2CCc2ccc(Cl)cc21` [CLOMIPRAMINE] was tested, and the TERMINAL_BW [1] was 213.4 g, the APTT [1] was 23.8 s and the Bas [1] was 0.4%. It also gave an Eos [1] of 0.8%, a Fbg [1] of 259.6 mg/dL and a Hb [1] of 13.8 g/dL. It also gave a Ht [1] of 42.8%, a Lym [1] of 77.4% and an MCH [1] of 21.4 pg. For the same compound, the MCHC [1] was 32.3%, the MCV [1] was 66.4 fL and the Mono [1] was 3.6%. For the same compound, the Neu [1] was 16.8%, the PT [1] was 13.6 s and the Plat [1] was 115.6 x10_4/uL. The Ret [1] was 8.2%, the WBC [1] was 86.3 x10_2/uL and the KIDNEY_L [1] was 1 g. For the same compound, the KIDNEY_R [1] was 1 g, the KIDNEY_TOTAL [1] was 1.9 g and the LIVER [1] was 9.4 g. The ALP [1] was 1695.8 IU/L, the ALT [1] was 43.8 IU/L and the AST [1] was 82.8 IU/L. It also gave a BUN [1] of 9.6 mg/dL, a CRE [1] of 0.2 mg/dL and a DBIL [1] of 0.006 mg/dL. It also gave a GLC [1] of 182.4 mg/dL, an IP [1] of 9.7 mg/dL and a K [1] of 4.2 meq/L. For the same compound, the LDH [1] was 98.4 IU/L, the Na [1] was 140.2 meq/L and the PL [1] was 140 mg/dL. The RALB [1] was 2.5 g/dL, the TBIL [1] was 0.074 mg/dL and the TC [1] was 75.4 mg/dL. For the same compound, the TG [1] was 54.2 mg/dL, the TP [1] was 5.2 g/dL and the gamma-GTP [1] was 1 IU/L. For the same compound, the TERMINAL_BW [2] was 213.9 g, the APTT [2] was 16.6 s and the Bas [2] was 0%. For the same compound, the Eos [2] was 0.8%, the Fbg [2] was 254.2 mg/dL and the Hb [2] was 13.7 g/dL. The Ht [2] was 42.3%, the Lym [2] was 76.2% and the MCH [2] was 21 pg. The MCHC [2] was 32.3%, the MCV [2] was 65.1 fL and the Mono [2] was 2.8%. It also gave a Neu [2] of 19.2%, a PT [2] of 13.9 s and a Plat [2] of 125.3 x10_4/uL. It also gave a Ret [2] of 8.3%, a WBC [2] of 83.4 x10_2/uL and a KIDNEY_L [2] of 1 g. It also gave a KIDNEY_R [2] of 1 g, a KIDNEY_TOTAL [2] of 2 g and an LIVER [2] of 9.4 g. The ALP [2] was 1630.4 IU/L, the ALT [2] was 38.6 IU/L and the AST [2] was 76.6 IU/L. It also gave a BUN [2] of 9.2 mg/dL, a CRE [2] of 0.2 mg/dL and a Ca [2] of 10.8 mg/dL. For the same compound, the DBIL [2] was 0.006 mg/dL, the GLC [2] was 178.2 mg/dL and the IP [2] was 9.8 mg/dL. For the same compound, the K [2] was 4.2 meq/L, the LDH [2] was 90 IU/L and the Na [2] was 140.4 meq/L. The PL [2] was 142.6 mg/dL, the RALB [2] was 2.6 g/dL and the TBIL [2] was 0.07 mg/dL. The TC [2] was 71.8 mg/dL, the TG [2] was 77.8 mg/dL and the TP [2] was 5.4 g/dL. It also gave a gamma-GTP [2] of 1 IU/L, a TERMINAL_BW [3] of 213.6 g and an APTT [3] of 16.7 s. For the same compound, the Bas [3] was 0.2%, the Eos [3] was 1% and the Fbg [3] was 245 mg/dL. The Hb [3] was 13.4 g/dL, the Ht [3] was 41% and the Lym [3] was 78.2%. For the same compound, the MCH [3] was 21 pg, the MCHC [3] was 32.6% and the MCV [3] was 64.4 fL. The Mono [3] was 1.6%, the Neu [3] was 18% and the PT [3] was 14 s. For the same compound, the Plat [3] was 133.7 x10_4/uL, the Ret [3] was 8.1% and the WBC [3] was 86.1 x10_2/uL. It also gave a KIDNEY_L [3] of 1 g, a KIDNEY_R [3] of 1 g and a KIDNEY_TOTAL [3] of 2 g. For the same compound, the LIVER [3] was 8.5 g, the ALP [3] was 1606 IU/L and the ALT [3] was 39.8 IU/L. It also gave an AST [3] of 79.8 IU/L, a BUN [3] of 9.8 mg/dL and a CRE [3] of 0.2 mg/dL. For the same compound, the DBIL [3] was 0.008 mg/dL, the GLC [3] was 181 mg/dL and the IP [3] was 10.1 mg/dL. The K [3] was 4 meq/L, the LDH [3] was 109.8 IU/L and the Na [3] was 140.6 meq/L. For the same compound, the PL [3] was 139.2 mg/dL, the RALB [3] was 2.4 g/dL and the TBIL [3] was 0.07 mg/dL. The TC [3] was 75.4 mg/dL, the TG [3] was 51.2 mg/dL and the TP [3] was 5.1 g/dL. The gamma-GTP [3] was 1 IU/L, the TERMINAL_BW [4] was 229.8 g and the APTT [4] was 18 s. The Bas [4] was 0%, the Eos [4] was 0.8% and the Fbg [4] was 257.8 mg/dL. The Hb [4] was 13.5 g/dL, the Ht [4] was 41.6% and the Lym [4] was 82.6%. The MCH [4] was 20.5 pg, the MCHC [4] was 32.4% and the MCV [4] was 63.4 fL. For the same compound, the Mono [4] was 2.8%, the Neu [4] was 12.6% and the PT [4] was 13.4 s. It also gave a Plat [4] of 129 x10_4/uL, a Ret [4] of 7.4% and a WBC [4] of 82.9 x10_2/uL. It also gave a KIDNEY_L [4] of 1 g, a KIDNEY_R [4] of 1 g and a KIDNEY_TOTAL [4] of 2.1 g. For the same compound, the LIVER [4] was 11 g, the ALP [4] was 1743.2 IU/L and the ALT [4] was 45.8 IU/L. The AST [4] was 73.4 IU/L, the BUN [4] was 14 mg/dL and the CRE [4] was 0.2 mg/dL. For the same compound, the Ca [4] was 10.9 mg/dL, the DBIL [4] was 0.01 mg/dL and the GLC [4] was 176.4 mg/dL. The IP [4] was 8.2 mg/dL, the K [4] was 4.1 meq/L and the LDH [4] was 80.2 IU/L. The Na [4] was 140.8 meq/L, the PL [4] was 161.6 mg/dL and the RALB [4] was 2.6 g/dL. It also gave a TBIL [4] of 0.062 mg/dL, a TC [4] of 83.2 mg/dL and a TP [4] of 5.5 g/dL. The gamma-GTP [4] was 1 IU/L and the TERMINAL_BW (10 mg/kg, 3 h, dose level Low) was 216.3 g.
